Measurements published in paper PMC5882628, “Development of a Cell-Based Assay to Assess Binding of the proNGF Prodomain to Sortilin” (Cellular and Molecular Neurobiology, 2017).
pKd: −log10 of the molar value.

How the values were obtained:
proNGF (Homo sapiens) = proNGF (Homo sapiens) (UniProt P01138); conditions: cited from earlier work
wt sortilin = experiment: Competition of proNGF against GSTpro binding to wt sortilin-transfected HEK cells (stained for GST); assay type: cell-based, human; conditions: 5, 10, or 25 nM GSTpro concomitantly with 50 nM proNGF; Fig. 3v
Description: HEK 293 cells were grown in DMEM with 10% fetal bovine serum. They were transfected with plasmids either encoding wild type sortilin, or sortilin with a mutation that renders it endocytosis deficient, or an empty control vector according to manufacturer’s instructions using 20 µg lipofectamine (Thermo Fischer Scientific) with 8 µg DNA on […] per 6 cm, poly-lysine coated dish. The cells were initially plated into 24-well dishes after transfection. That intermediate step rendered more uniform cell numbers in the 96-well dishes that were used to run the actual assay. […]
A-T Immunohistochemistry on HEK 293 cells using Hoechst staining (nuclei); anti-sortilin staining; or staining directed against the pro domain of proNGF (proNGF/GSTpro); or composite image showing all staining concomitantly as indicated above the panels. a–d Cells transfected with an empty expression vector and treated with GSTpro. e–h Cells transfected with a sortilin expression construct, but not treated with GSTpro. i–l Cells transfected with sortilin and GSTpro treated. m–p, Cells transfected with sortilin and proNGF purified from recombinant E.coli. q–t Cells transfected with sortilin and proNGF purified from a eukaryotic expression system. […] Black columns: Total fluorescence intensity of “sortilin-negative” cells. Red columns: Total fluorescence intensity of sortilin positive cells. […]

sortilin [1] = conditions: scintillation proximity assay; ref Andersen et al. [2014]; cited from earlier work
From the text: The role of sortilin signaling in several pathologic processes makes it a target for drug development. […] In addition to this assay, other in vitro assays including the binding of ligands to membrane fractions derived from sortilin-expressing cells (Carvelli et al. [2017]), surface plasmon resonance, and l ...

[2] = biological target: internalization-mutant sortilin (human) (UniProt Q99523); experiment: immunostaining of cells or tissue; HEK293 cells transiently transfected with sortilin (or empty vector) in 96-well dishes, treated 45 min with 50 nM GSTpro or proNGF, washed, fixed, permeabilised (0.1% Triton X-100), stained for sortilin and for GST or the pro domain; automated array-scanner analysis of sortilin-positive and sortilin-negative cells
sortilin [3] = biological target: T1, sortilin (Homo sapiens, UniProt Q99523); experiment: Cell-based assay of GSTpro (NGF prodomain) binding/uptake, wt sortilin-transfected HEK293 cells, sortilin/GST double stain, high content imaging, with detergent; conditions: Fig. 6a; with detergent; sortilin-positive cells; preincubation 1 h, GSTpro 45 min
T1 construct: They were transfected with plasmids either encoding wild type sortilin, or sortilin with a mutation that renders it endocytosis deficient; expressed in transfected cells; host or cells: HEK 293 cells, transient transfection (lipofectamine)
T1 sequence (Q99523 78-831): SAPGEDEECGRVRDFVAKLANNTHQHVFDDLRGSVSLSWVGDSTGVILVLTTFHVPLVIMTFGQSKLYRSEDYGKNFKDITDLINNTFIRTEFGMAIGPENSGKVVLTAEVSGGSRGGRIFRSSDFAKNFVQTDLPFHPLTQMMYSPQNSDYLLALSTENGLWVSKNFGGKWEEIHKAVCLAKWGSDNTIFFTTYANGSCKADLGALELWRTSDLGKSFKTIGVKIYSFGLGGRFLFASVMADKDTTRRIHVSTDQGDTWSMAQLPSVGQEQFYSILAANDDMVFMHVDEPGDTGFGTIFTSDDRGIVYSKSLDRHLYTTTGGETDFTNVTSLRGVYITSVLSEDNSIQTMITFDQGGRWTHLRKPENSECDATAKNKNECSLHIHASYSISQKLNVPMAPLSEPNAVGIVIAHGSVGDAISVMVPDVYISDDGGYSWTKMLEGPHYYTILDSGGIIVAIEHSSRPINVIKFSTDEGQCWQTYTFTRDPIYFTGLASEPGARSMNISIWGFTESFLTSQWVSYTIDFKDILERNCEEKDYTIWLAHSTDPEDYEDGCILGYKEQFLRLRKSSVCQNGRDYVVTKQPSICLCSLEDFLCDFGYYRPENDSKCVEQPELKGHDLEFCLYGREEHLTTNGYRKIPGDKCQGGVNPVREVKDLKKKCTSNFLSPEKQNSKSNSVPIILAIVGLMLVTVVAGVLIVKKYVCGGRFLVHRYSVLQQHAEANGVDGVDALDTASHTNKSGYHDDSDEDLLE
Description: HEK 293 cells were grown in DMEM with 10% fetal bovine serum. They were transfected with plasmids either encoding wild type sortilin, or sortilin with a mutation that renders it endocytosis deficient, or an empty control vector according to manufacturer’s instructions using 20 µg lipofectamine (Thermo Fischer Scientific) with 8 µg DNA on […] per 6 cm, poly-lysine coated dish. The cells were initially plated into 24-well dishes after transfection. That intermediate step rendered more uniform cell numbers in the 96-well dishes that were used to run the actual assay. 24 h later, cells were split into black opaque-walled, clear-bottom 96 well dishes at 42000 cells in 80 µl medium/well. […] 1 h after that treatment, the medium was replaced with 80 µl medium containing the same antibody, compounds or peptides included in the preincubation medium, plus recombinant GSTpro or proNGF (either purified in-house from recombinant HEK cells or derived from an E.coli expression system at either 0 nM (negative control), or 50 nM, or, in a few instances at 5 or 10 nM. The respective concentrations are indicated in the figures 45 min after adding GSTpro or proNGF, cells were washed twice with prewarmed PBS and fixed in 4% PFA for 20 min at approximately 20 °C.
The fixed cells were washed with PBS for 15 min, followed by two 15 min washes with PBS with 0.1% Triton X-100. […] Wells to be evaluated for blocking of the sortilin-GSTpro interaction by antibodies were only stained with an antibody against the pro domain of proNGF in 10% FBS at a dilution of 1:1500 (Millipore (N-term) clone EPI318Y, Rabbit Monoclonal Antibody Catalog Number: #04-1142). […]
The following day, wells were washed 3 × 15 min with PBS/0.1% Triton X-100. […] Cellular fluorescence was quantified using an array scanner and the “Neuronal Profiler” Bioapplication (Thermo Fisher Scientific) as described below.
Sortilin-GSTpro interaction was also assessed using HEK cell derived cell lines stably expressing sortilin. […]
Images from 96 well dishes were automatically recorded with a Cellomics ArrayScan VTI HCS Reader (Thermo Scientific) using a 10× microscope objective and the build-in standard autofocus method. Fifteen 1024 × 1024 images in 4 channels (Channel 1 and 2: Filter XF5–Hoechst, to detect nuclei and all cells; Channel 3: XF53-Texas Red to detect, e.g., sortilin-positive cells; Channel 4: Filter XF93 – FITC, to detect cells positive, e.g., for the proNGF pro domain) were recorded per 96 well.
The images were analyzed with the Cellomics assay algorithm NeuronalProfiling.V3.5.

Chain of proNGF (Homo sapiens) (P01138 122-241): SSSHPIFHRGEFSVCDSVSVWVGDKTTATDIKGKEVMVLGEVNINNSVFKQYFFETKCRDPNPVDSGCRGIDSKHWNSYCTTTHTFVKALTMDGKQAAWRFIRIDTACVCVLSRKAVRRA

For sortilin (from UniProt Q99523), the pKd (proNGF (Homo sapiens)) is given as 8.30.
For “euk. proNGF: proNGF isolated from a mammalian expression system”, the “competition against GSTpro binding to sortilin (in words)” value (wt sortilin) was “compete against GSTpro binding to wt sortilin”.
In the case of `Cc1cc(=O)oc2c(CN[C@@H](CC(C)C)C(=O)O)c(O)ccc12` [AF40431], the “blocking of sortilin-neurotensin interaction (in words)” value (sortilin [1]) is listed as “blocked sortilin-neurotensin interaction”.
In the case of “proNGF isolated from recombinant E. coli: Recombinant human proNGF expressed and purified from E.coli, purchased from Alamone labs”, the “competition against GSTpro binding to sortilin (in words)” value (wt sortilin) was “compete against GSTpro binding to wt sortilin”.
For “GSTpro (GST C-terminally linked to the pro domain from NGF) (from UniProt P01138 19-121) (domain or fragment)”, the GSTpro signal compared to wt sortilin transfected cells [2] was 60 % higher.
For PYIL [reference compound], the “reduction of GSTpro signal by neurotensin-derived and control peptides (in words)” value (sortilin [3]) was “to a lesser extent also reduced”.
